Laboratory results published in patent US20120149700A1, “2-CYANOPHENYL FUSED HETEROCYCLIC COMPOUNDS, AND COMPOSTIONS AND USES THEREOF” (priority 2007, published 2012).

Assays:
P2X2/3 = target: T1, P2X2/3 (Homo sapiens, UniProt P56373+Q9UBL9); assay: Calcium uptake assay (P2X antagonist assay, inhibition of agonist-induced calcium influx), P2X2/3; format: cell-based; conditions: inhibition of agonist-induced calcium influx in cells expressing the receptor
T1 construct: expressed in transfected cells; host or cells: cell line stably expressing P2X2, stably transfected with P2X3 (e.g. HEK293 or 1321N1)
T1 sequence (Q9UBL9 1-471): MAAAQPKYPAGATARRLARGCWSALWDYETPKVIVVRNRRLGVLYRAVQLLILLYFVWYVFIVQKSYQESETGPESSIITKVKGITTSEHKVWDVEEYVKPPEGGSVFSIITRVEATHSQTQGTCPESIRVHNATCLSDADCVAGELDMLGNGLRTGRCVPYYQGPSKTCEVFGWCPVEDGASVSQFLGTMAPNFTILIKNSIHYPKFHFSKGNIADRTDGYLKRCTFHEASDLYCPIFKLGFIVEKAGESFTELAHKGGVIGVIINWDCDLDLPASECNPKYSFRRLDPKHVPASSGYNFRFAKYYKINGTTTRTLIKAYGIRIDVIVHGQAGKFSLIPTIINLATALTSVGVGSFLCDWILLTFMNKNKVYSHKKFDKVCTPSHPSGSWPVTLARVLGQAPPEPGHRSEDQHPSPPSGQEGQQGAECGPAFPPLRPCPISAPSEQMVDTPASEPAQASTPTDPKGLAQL
T1 sequence (P56373 1-397): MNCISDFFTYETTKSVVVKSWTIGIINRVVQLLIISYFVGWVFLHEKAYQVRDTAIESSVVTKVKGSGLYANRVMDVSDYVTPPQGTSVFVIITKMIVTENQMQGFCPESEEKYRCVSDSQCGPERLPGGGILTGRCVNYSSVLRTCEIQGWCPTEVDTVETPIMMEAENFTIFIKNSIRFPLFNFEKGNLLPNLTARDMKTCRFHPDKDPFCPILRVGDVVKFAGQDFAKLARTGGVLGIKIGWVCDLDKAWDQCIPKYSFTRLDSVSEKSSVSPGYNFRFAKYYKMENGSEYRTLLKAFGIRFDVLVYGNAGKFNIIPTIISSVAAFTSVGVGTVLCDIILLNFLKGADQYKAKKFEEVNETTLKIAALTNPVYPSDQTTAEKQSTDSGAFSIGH
Source text: (§1) The human P2X2/3 chimera clone is created as described by Neelands et al, and then cloned into an expression vector as above. Receptors are expressed in cells (e.g., HEK293 or 1321N1 (obtained from the ECACC)) via transient transfection using standard lipid mediated transfection, or by creation of stable transfectants for each receptor. For expression of the P2X2/3 heteromeric receptor, the P2X3 expression vector is stably transfected into a cell line already stably expressing P2X2. P2X2/3 heteromer function is isolated using pharmacological methods. Cell lines are maintained in DMEM+5% Glutamax, the appropriate level of selective antibiotic, and 10% heat inactivated FBS.
(§2) Functional activity of compounds at the P2X receptor is determined by measuring their ability to inhibit agonist-induced calcium influx. Compounds are tested for antagonist activity against the P2X2/3 chimera, the P2X3 homomer, or the P2X2/3 heteromer. At the start of each screening day, the agonist EC50 is determined. Compound % inhibition or IC50s are subsequently determined using a pre-determined agonist concentration (EC50-90 depending on cell line) as a stimulus. The agonists used are αβMeATP, ATP, or other ATP analogs. Compounds may be tested at concentrations ranging from 1 pM to 10 μM.
(§3) To test for antagonist activity, cells expressing the appropriate receptor are seeded onto 96 or 384 well plates 18-24 hours prior to assay. […] Plates are incubated at 37° C. and then equilibrated at room temperature. Antagonism of agonist-induced calcium influx is measured using a fluorescent imaging plate reader (e.g. FLIPR^TETRA, Molecular Devices, Sunnyvale, Calif.). The assay comprises two stages: a pre-treatment phase followed by a treatment phase. Compounds may be tested as follows: For the pre-treatment phase, 50 μL of 3× concentration of test compound in HBSS is added to cells containing 100 μL of dye loading media to achieve a final concentration of 1× test compound. For the treatment phase, at a set interval after pre-treatment (1-30 minutes), 50 μl, of 1× test compound plus 4× agonist solution is added, resulting in a final concentration of 1× compound and 1× agonist. […] Responses are measured as (peak fluorescence after agonist addition) minus (baseline fluorescence prior to treatment). Percent inhibition is calculated as follows: […]
(§4) IC50 values are determined by analyzing dose response data in a 4 parameter logistic fit using GraphPad Prizm.

P2X3 = target: T2, P2X3 (Homo sapiens, UniProt P56373); assay: Calcium uptake assay (P2X antagonist assay, inhibition of agonist-induced calcium influx), P2X3; format: cell-based; conditions: inhibition of agonist-induced calcium influx in cells expressing the receptor
T2 construct: expressed in transfected cells; host or cells: e.g. HEK293 or 1321N1
T2 sequence (P56373 1-397): T1 sequence (P56373 1-397)
Source text: as §1, §2, §3, §4

SMILES	IC50 (P2X2/3)	IC50 (P2X3)
Cc1ccc(N2CCc3ncnc(N[C@H](CCO)c4ccc(C(F)(F)F)nc4)c3C2)c(C#N)c1 [Compound 64, 2-{4-[(R)-3-Hydroxy-1-(6-trifluoromethyl-pyridin-3-yl)-propylamino]-7,8-dihydro-5H-pyrido[4,3-d]pyrimidin-6-yl}-5-methyl-benzonitrile]	59 nM	23 nM
Cc1ccc(N2CCc3ncnc(N[C@@H](CCO)c4ccc(C(F)(F)F)nc4)c3C2)c(C#N)c1 [Compound 65, 2-{4-[(S)-3-Hydroxy-1-(6-trifluoromethyl-pyridin-3-yl)-propylamino]-7,8-dihydro-5H-pyrido[4,3-d]pyrimidin-6-yl}-5-methyl-benzonitrile]	5420 nM	806 nM
N#Cc1cc(Cl)ccc1N1CCc2ncnc(N[C@H](CO)c3ccc(C(F)F)nc3)c2C1 [Compound 72, 5-Chloro-2-[4-[(S)-1-(6-difluoromethyl-pyridin-3-yl)-2-hydroxy-ethylamino]-7,8-dihydro-5H-pyrido[4,3-d]pyrimidin-6-yl]-benzonitrile]	404 nM	16 nM
CC(=O)OCC[C@@H](Nc1ncnc2c1CN(c1ccc(C)cc1C#N)CC2)c1ccc(C(F)(F)F)nc1 [Compound 77, Acetic acid (R)-3-[6-(2-cyano-4-methyl-phenyl)-5,6,7,8-tetrahydro-pyrido[4,3-d]pyrimidin-4-ylamino]-3-(6-trifluoromethyl-pyridin-3-yl)-propyl ester]	536 nM	130 nM
Cc1ccc(N2CCc3ncnc(NCc4ccc5ccccc5n4)c3C2)c(C#N)c1 [Compound 80, 5-Methyl-2-(4-(quinolin-2-ylmethylamino)-7,8-dihydropyrido[4,3-d]pyrimidin-6(5H)-yl)benzonitrile]	263 nM	156 nM
Cc1ccc(N2CCc3ncnc(NCc4ccc5c(c4)OCO5)c3C2)c(C#N)c1 [Compound 82, 2-(4-(Benzo[d][1,3]dioxol-5-ylmethylamino)-7,8-dihydropyrido[4,3-d]pyrimidin-6(5H)-yl)-5-methylbenzonitrile]	310 nM	56 nM

The next lines start with the values.

IC50 (P2X2/3)	IC50 (P2X3)	SMILES
120 nM	37 nM	Cc1ccc(N2CCc3ncnc(NCc4ccc(Cl)c(S(C)(=O)=O)c4)c3C2)c(C#N)c1 [Compound 71, 2-[4-(4-Chloro-3-methanesulfonyl-benzylamino)-7,8-dihydro-5H-pyrido[4,3-d]pyrimidin-6-yl]-5-methyl-benzonitrile]
241 nM	40 nM	Cc1ccc(CNc2ncnc3c2CN(c2ccc(Cl)cc2C#N)CC3)cc1S(C)(=O)=O [Compound 76, 5-Chloro-2-[4-(3-methanesulfonyl-4-methyl-benzylamino)-7,8-dihydro-5H-pyrido[4,3-d]pyrimidin-6-yl]-benzonitrile]
67 nM	34 nM	Cc1ccc(N2CCc3ncnc(NCc4ccc5nccnc5c4)c3C2)c(C#N)c1 [Compound 79, 5-Methyl-2-(4-(quinoxalin-6-ylmethylamino)-7,8-dihydropyrido[4,3-d]pyrimidin-6(5H)-yl)benzonitrile]
2160 nM	423 nM	Cc1ccc(N2CCc3ncnc(NCc4ccc5cc[nH]c5c4)c3C2)c(C#N)c1 [Compound 81, 2-(4-((1H-Indol-6-yl)methylamino)-7,8-dihydropyrido[4,3-d]pyrimidin-6(5H)-yl)-5-methylbenzonitrile]
478 nM	125 nM	N#Cc1cc(Cl)ccc1N1CCc2ncnc(NCc3ccc4nccnc4c3)c2C1 [Compound 84, 5-Chloro-2-{4-[(quinoxalin-6-ylmethyl)-amino]-7,8-dihydro-5H-pyrido[4,3-d]pyrimidin-6-yl}-benzonitrile]
24 nM	20 nM	Cc1ccc(N2CCc3ncnc(NCc4ccc5cccnc5c4)c3C2)c(C#N)c1 [Compound 92, 5-Methyl-2-(4-(quinolin-7-ylmethylamino)-7,8-dihydropyrido[4,3-d]pyrimidin-6(5H)-yl)benzonitrile]
